Experimental data from patent publication US20070275982A1, “METHOD” (ASTRAZENECA AB, priority 2006, published 2007).
Where two headings read alike, the source gives them in different places.

Tested on: M. tuberculosis
Assay: MIC of drugs alone and in combination (synergy test)
Assay type: cell-based, Mycobacterium tuberculosis
Conditions: for change of MIC when tested together: combination Ethambutol + Isoniazid (negative control, FIG. 2); for MIC: Mycobacterium tuberculosis, drug tested alone, read-out: individual MIC
Procedure: A sulfonylurea ALS inhibitor and a triazolopyrimidine ALS inhibitor were tested alone and in combination with Rifampicin. The positive controls used were Isoniazid and Streptomycin where one finds a synergistic action. The individual MICs of Isoniazid (INH) and Streptomycin (Strep) are 0.03 and 1.0 μg/ml respectively. When used in combination, these values drop to 0.0075 and 0.12 μg/ml respectively (cf. FIG. 1). This is 4 fold and 8 fold less.
The negative control used was a combination of Ethambutol (Etham) and Isoniazid (Inh) where there is no synergistic activity. […] In. Clinical Microbiology Procedures Handbook; Vol. 1-2 by Isenberg, Henry. D. Ed Washington D.C.; American Society for Microbiology/1992; Pages 5.18.1 to 5.18.28).

[1] = combination Isoniazid + Streptomycin
[2] = combination Isoniazid + Streptomycin (positive control, FIG. 1)

| SMILES | change of MIC when tested together | MIC | fold drop of MIC in combination vs individual MIC [1] | MIC when used in combination [2] | MIC (Rifampicin/TP experiment (FIG. 4)) | fold drop of MIC in combination vs individual MIC (combination Rifampicin + SU) | fold drop of MIC in combination vs individual MIC (combination Rifampicin + TP) | MIC when used in combination (combination Rifampicin + sulphonylurea compound (SU), FIG. 3) | MIC when used in combination (combination Rifampicin + triazolopyrimidine compound (TP), FIG. 4) |
| --- | --- | --- | --- | --- | --- | --- | --- | --- | --- |
| CC[C@@H](CO)NCCN[C@@H](CC)CO [Ethambutol] | do not drop significantly | – | – | – | – | – | – | – | – |
| NNC(=O)c1ccncc1 [Isoniazid] | do not drop significantly | 0.03 µg/mL | 4 fold | 0.0075 µg/mL | – | – | – | – | – |
| CO[C@H]1/C=C/O[C@@]2(C)Oc3c(C)c(O)c4c(O)c(c(/C=N/N5CCN(C)CC5)c(O)c4c3C2=O)NC(=O)/C(C)=C\C=C\[C@H](C)[C@H](O)[C@@H](C)[C@@H](O)[C@@H](C)[C@H](OC(C)=O)[C@@H]1C [Rifampicin] | – | 0.03 µg/mL | – | – | 0.015 µg/mL | 8 fold | 4 fold | 0.0038 µg/mL | 0.0038 µg/mL |
| [H]/N=C(/N)N[C@H]1[C@H](O)[C@@H](O)[C@H](O[C@@H]2O[C@@H](C)[C@](O)(C=O)[C@H]2O[C@@H]2O[C@@H](CO)[C@H](O)[C@@H](O)[C@@H]2NC)[C@@H](N/C(N)=N\[H])[C@@H]1O [Streptomycin] | – | 1 µg/mL | 8 fold | 0.12 µg/mL | – | – | – | – | – |
